Measurements: PubChem BioAssay (NCI)
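How tested: cells in 96-well plates exposed to compound for 48 hours at five concentrations. The concentration for full growth arrest is given as TGI.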

Tests used:
Assay in all cases: growth of human tumour cells (NCI), 48 h
[1] = system: 786-0 renal
[2] = system: A549 NSCLC
[3] = system: ACHN renal
[4] = system: CCRF-CEM leukemia
[5] = system: COLO 205 colon
[6] = system: DLD-1 colon
[7] = system: DMS 114 small cell lung
[8] = system: EKVX NSCLC
[9] = system: HCC-2998 colon
[10] = system: HCT-116 colon
[11] = system: HL-60(TB) leukemia
[12] = system: HOP-62 NSCLC
[13] = system: HOP-92 NSCLC
[14] = system: HT29 colon
[15] = system: IGROV1 ovarian
[16] = system: K-562 leukemia
[17] = system: KM12 colon
[18] = system: KM20L2 colon
[19] = system: LOX IMVI melanoma
[20] = system: LXFL 529 NSCLC
[21] = system: M14 melanoma
[22] = system: M19-MEL melanoma
[23] = system: MALME-3M melanoma
[24] = system: MOLT-4 leukemia
[25] = system: NCI-H226 lung
[26] = system: NCI-H23 lung
[27] = system: NCI-H460 lung
[28] = system: NCI-H522 lung
[29] = system: OVCAR-3 ovarian
[30] = system: OVCAR-5 ovarian
[31] = system: OVCAR-8 ovarian
[32] = system: RPMI-8226 leukemia
[33] = system: RXF 393 renal
[34] = system: SF-268 CNS
[35] = system: SF-295 CNS
[36] = system: SF-539 CNS
[37] = system: SK-MEL-2 melanoma
[38] = system: SK-MEL-28 melanoma
[39] = system: SK-MEL-5 melanoma
[40] = system: SK-OV-3 ovarian
[41] = system: SNB-75 CNS
[42] = system: SW-620 colon
[43] = system: TK-10 renal
[44] = system: U251 CNS
[45] = system: UACC-257 melanoma
[46] = system: UACC-62 melanoma
[47] = system: UO-31 renal
[48] = system: A498 renal
[49] = system: BT-549 breast
[50] = system: CAKI-1 renal
[51] = system: DU-145 prostate
[52] = system: HCT-15 colon
[53] = system: HS 578T breast
[54] = system: MCF7 breast
[55] = system: MDA-MB-231 breast
[56] = system: MDA-MB-435
[57] = system: MDA-N
[58] = system: NCI/ADR-RES ovarian
[59] = system: OVCAR-4 ovarian
[60] = system: PC-3 prostate
[61] = system: SN12C renal
[62] = system: SNB-19 CNS
[63] = system: SR leukemia
[64] = system: T-47D breast

C/C(CC(=O)Nc1cccc([N+](=O)[O-])c1)=N/NC(N)=S
TGI [1]: > 100 µM | TGI [2]: > 100 µM | TGI [3]: > 100 µM | TGI [4]: > 100 µM | TGI [5]: > 100 µM | TGI [6]: > 100 µM | TGI [7]: > 100 µM | TGI [8]: > 100 µM | TGI [9]: > 100 µM | TGI [10]: > 100 µM | TGI [11]: > 100 µM | TGI [12]: > 100 µM | TGI [13]: > 100 µM | TGI [14]: > 100 µM | TGI [15]: > 100 µM | TGI [16]: > 100 µM | TGI [17]: > 100 µM | TGI [18]: > 100 µM | TGI [19]: > 100 µM | TGI [20]: > 100 µM | TGI [21]: > 100 µM | TGI [22]: > 100 µM | TGI [23]: > 100 µM | TGI [24]: > 100 µM | TGI [25]: > 100 µM | TGI [26]: > 100 µM | TGI [27]: > 100 µM | TGI [28]: > 100 µM | TGI [29]: > 100 µM | TGI [30]: > 100 µM | TGI [31]: > 100 µM | TGI [32]: > 100 µM | TGI [33]: > 100 µM | TGI [34]: > 100 µM | TGI [35]: > 100 µM | TGI [36]: > 100 µM | TGI [37]: > 100 µM | TGI [38]: > 100 µM | TGI [39]: > 100 µM | TGI [40]: > 100 µM | TGI [41]: > 100 µM | TGI [42]: > 100 µM | TGI [43]: > 100 µM | TGI [44]: > 100 µM | TGI [45]: > 100 µM | TGI [46]: > 100 µM | TGI [47]: > 100 µM

CC(C)(C)c1cc(OCc2n[nH]c(=S)n2N)c(Cl)cc1OCc1n[nH]c(=S)n1N
TGI [1]: > 100 µM | TGI [48]: > 100 µM | TGI [2]: > 100 µM | TGI [3]: > 100 µM | TGI [49]: > 100 µM | TGI [50]: > 100 µM | TGI [4]: > 100 µM | TGI [5]: > 100 µM | TGI [51]: > 100 µM | TGI [8]: > 100 µM | TGI [9]: > 100 µM | TGI [10]: > 100 µM | TGI [52]: > 100 µM | TGI [11]: 58.5 µM | TGI [12]: > 100 µM | TGI [13]: > 100 µM | TGI [53]: > 100 µM | TGI [14]: > 100 µM | TGI [15]: > 100 µM | TGI [16]: > 100 µM | TGI [17]: > 100 µM | TGI [19]: > 100 µM | TGI [21]: > 100 µM | TGI [23]: > 100 µM | TGI [54]: > 100 µM | TGI [55]: > 100 µM | TGI [56]: > 100 µM | TGI [57]: > 100 µM | TGI [24]: > 100 µM | TGI [25]: > 100 µM | TGI [26]: > 100 µM | TGI [27]: 77.9 µM | TGI [28]: > 100 µM | TGI [58]: > 100 µM | TGI [29]: > 100 µM | TGI [59]: > 100 µM | TGI [30]: > 100 µM | TGI [31]: > 100 µM | TGI [60]: > 100 µM | TGI [32]: > 100 µM | TGI [33]: > 100 µM | TGI [34]: > 100 µM | TGI [35]: > 100 µM | TGI [36]: > 100 µM | TGI [37]: 43 µM | TGI [38]: > 100 µM | TGI [39]: 54.6 µM | TGI [40]: > 100 µM | TGI [61]: 94 µM | TGI [62]: > 100 µM | TGI [41]: > 100 µM | TGI [63]: > 100 µM | TGI [42]: > 100 µM | TGI [64]: > 100 µM | TGI [43]: > 100 µM | TGI [44]: > 100 µM | TGI [45]: > 100 µM | TGI [46]: 50.3 µM | TGI [47]: > 100 µM
